Reference: patent publication US7449462B2, “Triazole derivatives which inhibit vasopressin antagonistic activity” (Pfizer, Inc., priority 2004, dated 2008)

Target: T1, human V1A receptor (Homo sapiens, UniProt P37288)
T1 construct: expressed in transfected cells; host or cells: CHO cells (CHO-hV1A line provided by Marc Thibonnier, Case Western Reserve University)
Assay: V1A filter binding assay (screen 1.0), [3H]-AVP binding to CHO-hV1A membranes
Conditions: [3H]-AVP displacement, membranes of CHO cells stably expressing the human V1A receptor; Cheng-Prusoff
Experimental: 1.0 V1A Filter Binding Assay
Receptor binding assays were performed on cellular membranes prepared from CHO cells stably expressing the human V1A receptor, (CHO-hV1A). The CHO-hV1A cell line was kindly provided under a licensing agreement by Marc Thibonnier, Dept. of Medicine, Case Western Reserve University School of Medicine, Cleveland, Ohio. CHO-hV1A cells were routinely maintained at 37° C. in humidified atmosphere with 5% CO2 in DMEM/Hams F12 nutrient mix supplemented with 10% fetal bovine serum, 2 mM L-glutamine, 15 mM HEPES and 400 μg/ml G418. […] Confluent CHO-hV1A cells were washed with phosphate-buffered saline (PBS), harvested into ice cold PBS and centrifuged at 1,000 rpm. Cell pellets were stored at −80° C. until use. Cell pellets were thawed on ice and homogenised in membrane preparation buffer consisting of 50 mM Tris-HCl, pH 7.4, 5 mM MgCl2 and supplemented with a protease inhibitor cocktail, (Roche). […] The remaining pellet was homogenised and centrifuged as before. The supernatants were pooled and centrifuged at 25,000×g for 30 min at 4° C. The pellet was resuspended in freezing buffer consisting of 50 mM Tris-HCl, pH 7.4, 5 mM MgCl2 and 20% glycerol and stored in small aliquots at −80° C. until use. Protein concentration was determined using Bradford reagent and BSA as a standard. […]
Compounds were tested for their effects on [^3H]-AVP binding to CHO-hV1A membranes, (^3H-AVP; specific activity 65.5 Ci/mmol; NEN Life Sciences). […] The plates were sealed and counted on a TopCount Microplate Scintillation Counter (Packard Instruments). […] The radioligand binding data was analysed using a four parameter logistic equation with the min forced to 0%. […] Specific binding was calculated by subtracting the mean NSB cpm from the mean Total cpm. […] The inhibitory dissociation constant (Ki) was calculated using the Cheng-Prusoff equation: Ki=IC50/(1+[L]/Kd) where [L] is the concentration of ligand present in the well and Kd is the dissociation constant of the radioligand obtained from Scatchard plot analysis.

T1 sequence (P37288 whole entry): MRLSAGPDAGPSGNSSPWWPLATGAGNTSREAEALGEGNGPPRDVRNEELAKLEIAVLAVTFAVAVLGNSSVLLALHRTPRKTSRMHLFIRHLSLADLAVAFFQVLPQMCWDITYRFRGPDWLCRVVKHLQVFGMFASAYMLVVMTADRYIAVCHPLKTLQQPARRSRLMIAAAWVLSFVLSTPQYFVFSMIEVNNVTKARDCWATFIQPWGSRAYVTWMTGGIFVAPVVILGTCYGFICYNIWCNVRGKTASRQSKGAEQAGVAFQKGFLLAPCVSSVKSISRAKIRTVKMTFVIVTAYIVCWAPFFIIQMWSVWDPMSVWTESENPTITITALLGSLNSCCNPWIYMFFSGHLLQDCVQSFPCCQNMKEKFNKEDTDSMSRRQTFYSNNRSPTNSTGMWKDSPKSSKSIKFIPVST

Row | Ki | Compound
1 | 3320 pM | Cc1cc(Cl)ccc1-n1c(C)nnc1C1CCN(c2ccccn2)CC1 [Example 9, 4-[4-(4-Chloro-2-methyl-phenyl)-5-methyl-4H-[1,2,4]triazol-3-yl]-3,4,5,6-tetrahydro-2H-[1,2′]bipyridinyl]
2 | 860 pM | Cc1cc(Cl)ccc1-n1c(Cn2nccn2)nnc1C1CCN(c2ccccn2)CC1 [Example 15, 4-[4-(4-Chloro-2-methyl-phenyl)-5-[1,2,3]triazol-2-ylmethyl-4H-[1,2,4]triazol-3-yl]-3,4,5,6-tetrahydro-2H-[1,2′]bipyridinyl]
3 | 470 pM | Clc1ccc(-n2c(Cn3nccn3)nnc2C2CCN(c3ccccn3)CC2)cc1 [Example 17, 4-[4-(4-Chloro-phenyl)-5-[1,2,3]triazol-2-ylmethyl-4H-[1,2,4]triazol-3-yl]-3,4,5,6-tetrahydro-2H-[1,2′]bipyridinyl]
